Assay results from patent US10392404B2, “Compounds and compositions as kinase inhibitors” (NOVARTIS AG, priority 2014, dated 2019).

Key:
b-Raf (V600E) = biological target: T1, b-Raf (V600E) (Homo sapiens, UniProt P15056, V600E); assay: In vitro Raf activity determination (Alpha Screen, biotinylated kinase-dead MEK1 substrate), B-Raf; format: biochemical; settings: b-Raf (V600E) approximately 4 pM; ATP 10 μM; pre-incubation 60 minutes; reaction 3 hours at room temperature
T1 construct: made in house
Procedure, shortened: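 Activated b-Raf(V600E) (~4 pM) pre-incubated 60 min with compound and biotinylated kinase-dead (K97R) MEK1 (~10 nM), then reacted 3 h at room temperature with 10 μM ATP in 50 mM Tris pH 7.5, 15 mM MgCl2, 0.01% BSA, 1 mM DTT. Phospho-MEK detected by AlphaScreen; IC50 by non-linear regression.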

C-RAF = biological target: T2, C-RAF (Homo sapiens, UniProt P04049, Y340E/Y341E); assay: In vitro Raf activity determination (Alpha Screen, biotinylated kinase-dead MEK1 substrate), C-Raf; format: biochemical; settings: c-Raf approximately 4 nM; ATP 1 μM; pre-incubation 60 minutes; reaction 1 hour at room temperature
T2 construct: His tag (implied by nickel chromatography) (cleaved yes); StrepII tag (cleaved yes); made in house; host or cells: Sf9 insect cells (baculovirus), CRAF and h14-3-3 zeta co-expressed; MEK1 substrate from E. coli
Procedure, shortened: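 Full-length C-Raf carrying Y340E/Y341E, co-expressed with 14-3-3ζ in Sf9 cells, at approximately 4 nM, with approximately 10 nM biotinylated kinase-dead MEK1 (K97R) and 1 μM ATP, pH 7.5. Compound preincubated 60 min, reaction 1 hour at room temperature. Phospho-MEK read by AlphaScreen; IC50 by non-linear regression.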

T1 sequence (P15056 whole entry V600E): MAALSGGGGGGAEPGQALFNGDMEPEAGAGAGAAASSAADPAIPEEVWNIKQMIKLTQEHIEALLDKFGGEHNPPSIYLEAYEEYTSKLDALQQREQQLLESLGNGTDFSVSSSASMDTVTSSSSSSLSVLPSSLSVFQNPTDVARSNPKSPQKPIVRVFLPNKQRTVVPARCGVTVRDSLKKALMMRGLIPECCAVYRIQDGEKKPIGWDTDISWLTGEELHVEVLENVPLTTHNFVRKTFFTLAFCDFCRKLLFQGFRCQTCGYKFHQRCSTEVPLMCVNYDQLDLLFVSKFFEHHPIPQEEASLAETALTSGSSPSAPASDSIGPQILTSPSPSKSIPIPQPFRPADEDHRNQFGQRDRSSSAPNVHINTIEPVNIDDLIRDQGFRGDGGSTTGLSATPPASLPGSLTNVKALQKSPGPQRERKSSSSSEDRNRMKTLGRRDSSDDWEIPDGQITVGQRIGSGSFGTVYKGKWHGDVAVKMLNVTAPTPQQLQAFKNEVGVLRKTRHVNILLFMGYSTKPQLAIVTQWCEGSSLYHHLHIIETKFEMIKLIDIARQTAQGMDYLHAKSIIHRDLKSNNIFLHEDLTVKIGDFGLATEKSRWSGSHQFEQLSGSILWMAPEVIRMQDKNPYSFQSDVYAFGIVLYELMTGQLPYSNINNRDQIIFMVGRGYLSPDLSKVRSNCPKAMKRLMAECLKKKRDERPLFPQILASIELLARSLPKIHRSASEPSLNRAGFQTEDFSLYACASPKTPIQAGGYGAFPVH
T2 sequence (P04049 whole entry Y340E/Y341E): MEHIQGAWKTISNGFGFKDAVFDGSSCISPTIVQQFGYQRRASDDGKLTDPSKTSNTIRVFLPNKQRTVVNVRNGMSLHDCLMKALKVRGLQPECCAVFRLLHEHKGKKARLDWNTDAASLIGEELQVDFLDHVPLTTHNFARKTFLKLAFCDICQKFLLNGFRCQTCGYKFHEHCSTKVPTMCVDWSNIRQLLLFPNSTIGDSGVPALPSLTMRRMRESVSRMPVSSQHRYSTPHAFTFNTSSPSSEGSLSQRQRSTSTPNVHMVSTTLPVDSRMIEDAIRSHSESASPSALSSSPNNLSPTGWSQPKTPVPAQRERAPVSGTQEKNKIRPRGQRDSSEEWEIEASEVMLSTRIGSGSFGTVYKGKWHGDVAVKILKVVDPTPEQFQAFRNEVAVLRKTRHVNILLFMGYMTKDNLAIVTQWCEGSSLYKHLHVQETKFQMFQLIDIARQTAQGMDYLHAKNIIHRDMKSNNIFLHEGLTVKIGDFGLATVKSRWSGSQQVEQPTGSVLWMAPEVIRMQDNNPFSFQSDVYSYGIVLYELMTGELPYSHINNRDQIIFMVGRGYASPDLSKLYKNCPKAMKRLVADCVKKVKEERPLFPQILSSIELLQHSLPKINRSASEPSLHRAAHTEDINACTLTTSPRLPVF
T2 sequence (P63104 whole entry partner): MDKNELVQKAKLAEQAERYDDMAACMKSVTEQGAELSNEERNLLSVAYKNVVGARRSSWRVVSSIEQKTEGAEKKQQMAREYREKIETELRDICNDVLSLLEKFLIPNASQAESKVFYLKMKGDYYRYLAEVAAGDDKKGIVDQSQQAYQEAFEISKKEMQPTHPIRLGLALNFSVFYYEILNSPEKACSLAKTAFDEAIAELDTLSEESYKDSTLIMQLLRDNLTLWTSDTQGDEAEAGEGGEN

| SMILES | IC50 (b-Raf (V600E)) [nM] | IC50 (C-RAF) [nM] |
| --- | --- | --- |
| Cc1ccc(NC(=O)c2cn(C(C)C)nc2C)cc1-c1cnc(N(C)C)c(C#N)c1 [Example 253, N-(3-(5-cyano-6-(dimethylamino)pyridin-3-yl)-4-methylphenyl)-1-isopropyl-3-methyl-1H-pyrazole-4-carboxamide] | 16.5 | 2.5 |
| Cc1cc(CC(=O)Nc2cnc(C)c(-c3cnc(N(C)C)c(C#N)c3)c2)on1 [Example 268, N-(5′-cyano-6′-(dimethylamino)-2-methyl-[3,3′-bipyridin]-5-yl)-2-(3-methylisoxazol-5-yl)acetamide] | 94.2 | 8 |
| Cc1ncc(NC(=O)c2ccnc(C(F)F)c2)cc1-c1cnc(C2CCOCC2)c(C#N)c1 [Example 129, N-(5′-cyano-2-methyl-6′-(tetrahydro-2H-pyran-4-yl)-[3,3′-bipyridin]-5-yl)-2-(difluoromethyl) isonicotinamide] | 23.8 | 2.55 |
| Cc1ncc(NC(=O)c2ccnc(C(C)(C)C#N)c2)cc1-c1cnc(-c2ccn(C)c(=O)c2)c(C#N)c1 [Example 103, N-(5′-cyano-1″,2-dimethyl-2″-oxo-1″,2″-dihydro-[3,3′:6′,4″- terpyridin]-5-yl)-2-(2-cyanopropan-2-yl)isonicotinamide] | 22.5 | 4.21 |
| Cc1cn(-c2ncc(-c3cc(NC(=O)c4ccnc(C(C)(C)C#N)c4)cnc3C)cc2C#N)cn1 [Example 84, N-(5′-cyano-2-methyl-6′-(4-methyl-1H-imidazol-1-yl)-[3,3′-bipyridin]-5-yl)-2-(2-cyanopropan-2-yl)isonicotinamide] | 25.1 | 5.1 |
| Cc1ncc(NC(=O)c2cccc(C(F)(F)F)c2)cc1-c1cnc(S(C)(=O)=O)c(C#N)c1 [Example 44, N-(5′-cyano-2-methyl-6′-(methylsulfonyl)-[3,3′-bipyridin]-5-yl)-3-(trifluoromethyl) benzamide] | 17.3 | 2.8 |
| Cc1ccc(NC(=O)c2cc(C3CC3)nn2C)cc1-c1cnc(N(C)C)c(C#N)c1 [Example 255, N-(3-(5-cyano-6-(dimethylamino)pyridin-3-yl)-4-methylphenyl)-3-cyclopropyl-1-methyl-1H-pyrazole-5-carboxamide] | 35.6 | 4.84 |
| Cc1ccc(NC(=O)c2ccnc(C(C)(C)C#N)c2)cc1-c1cnc(-n2ccc(=O)cc2)c(C#N)c1 [Example 120, N-(3-(3′-cyano-4-oxo-4H-[1,2′-bipyridin]-5′-yl)-4-methylphenyl)-2-(2-cyanopropan-2-yl)isonicotinamide] | 34.6 | 6.84 |
| Cc1ccc(NC(=O)c2cccc(C(F)(F)F)c2)cc1-c1cc(C#N)c[nH]c1=O [Example 14, N-(3-(5-cyano-2-oxo-1,2-dihydropyridin-3-yl)-4-methylphenyl)-3-(trifluoromethyl) benzamide] | 11.2 | 0.614 |
| Cc1ccc(NC(=O)c2cccc(C(F)(F)F)c2)cc1-c1cc(C#N)cnc1N [Example 13, N-(3-(2-amino-5-cyanopyridin-3-yl)-4-methylphenyl)-3-(trifluoromethyl) benzamide] | 5.61 | 0.284 |
| Cc1ncc(NC(=O)c2ccnc(C(C)(C)C#N)c2)cc1-c1cnc(OCCO)c(C#N)c1 [Example 98, N-(5′-cyano-6′-(2-hydroxyethoxy)-2-methyl-[3,3′-bipyridin]-5-yl)-2-(2-cyanopropan-2-yl)isonicotinamide] | 74.3 | 9.21 |
| Cc1ncc(NC(=O)c2cnnc(C(C)(C)C#N)c2)cc1-c1cnc(N2CC(C)(O)C2)c(C#N)c1 [Example 186, N-(5′-cyano-6′-(3-hydroxy-3-methylazetidin-1-yl)-2-methyl-[3,3′-bipyridin]-5-yl)-6-(2-cyanopropan-2-yl)pyridazine-4-carboxamide] | 52.6 | 10.2 |
| Cc1ncc(NC(=O)c2cccc(C(F)(F)F)n2)cc1-c1cnc(C2CCOCC2)c(C#N)c1 [Example 141, N-(5′-cyano-2-methyl-6′-(tetrahydro-2H-pyran-4-yl)-[3,3′-bipyridin]-5-yl)-6-(trifluoromethyl) picolinamide] | 56.2 | 5.13 |
| Cc1ncc(NC(=O)c2cccc(S(C)(=O)=O)c2)cc1-c1cnc(N2CC(C)(O)C2)c(C#N)c1 [Example 187, N-(5′-cyano-6′-(3-hydroxy-3-methylazetidin-1-yl)-2-methyl-[3,3′-bipyridin]-5-yl)-3-(methylsulfonyl) benzamide] | 26.6 | 4.2 |

Compounds with a lower IC50 (b-Raf (V600E)), results first:

| IC50 (b-Raf (V600E)) [nM] | IC50 (C-RAF) [nM] | SMILES |
| --- | --- | --- |
| 0.566 | 0.0734 | Cc1ccc(NC(=O)c2cccc(C(F)(F)F)c2)cc1-c1cnc(N(C)C)c(C#N)c1 [Example 15, N-(3-(5-cyano-6-(dimethylamino)pyridin-3-yl)-4-methylphenyl)-3-(trifluoromethyl) benzamide] |
| 2.8 | 0.994 | Cc1ccc(NC(=O)c2ccnc(C(C)(C)C#N)c2)cc1-c1cnc(C(C)C)c(C#N)c1 [Example 122, N-(3-(5-cyano-6-isopropylpyridin-3-yl)-4-methylphenyl)-2-(2-cyanopropan-2-yl)isonicotinamide] |
| 4.79 | 0.969 | CCn1cc(C(=O)Nc2cnc(C)c(-c3cnc(N4CCOCC4)c(C#N)c3)c2)cc(C(F)(F)F)c1=O [Example 135, N-(5′-cyano-2-methyl-6′-morpholino-[3,3′-bipyridin]-5-yl)-1-ethyl-6-oxo-5-(trifluoromethyl)-1,6-dihydropyridine-3-carboxamide] |
| 0.576 | 0.177 | Cc1ccc(NC(=O)c2cnnc(C(F)(F)F)c2)cc1-c1cnc(NC2CCOCC2)c(C#N)c1 [Example 174, N-(3-(5-cyano-6-((tetrahydro-2H-pyran-4-yl)amino)pyridin-3-yl)-4-methylphenyl)-6-(trifluoromethyl) pyridazine-4-carboxamide] |
| 0.71 | 0.106 | Cc1ccc(NC(=O)c2ccnc(S(C)(=O)=O)c2)cc1-c1cnc(N(C)C)c(C#N)c1 [Example 261, N-(3-(5-cyano-6-(dimethylamino)pyridin-3-yl)-4-methylphenyl)-2-(methylsulfonyl) isonicotinamide] |
| 3.58 | 0.617 | Cc1ccc(NC(=O)c2cccc(S(C)(=O)=O)c2)cc1-c1cnc(N2CC(C)(O)C2)c(C#N)c1 [Example 218, N-(3-(5-cyano-6-(3-hydroxy-3-methylazetidin-1-yl)pyridin-3-yl)-4-methylphenyl)-3-(methylsulfonyl) benzamide] |
| 1.33 | 0.18 | CNc1ncc(-c2cc(NC(=O)c3cccc(C(F)(F)F)c3)ccc2C)cc1C#N [Example 5, N-(3-(5-cyano-6-(methylamino)pyridin-3-yl)-4-methylphenyl)-3-(trifluoromethyl) benzamide] |
| 2.79 | 0.344 | Cc1ncc(NC(=O)c2cnnc(C(F)(F)F)c2)cc1-c1cnc(N2CCOCC2)c(C#N)c1 [Example 142, N-(5′-cyano-2-methyl-6′-morpholino-[3,3′-bipyridin]-5-yl)-6-(trifluoromethyl) pyridazine-4-carboxamide] |
| 3.24 | 0.533 | Cc1ccc(NC(=O)c2cc(C(C)(C)F)ccn2)cc1-c1cnc(N2CCOCC2)c(C#N)c1 [Example 245, N-(3-(5-cyano-6-morpholinopyridin-3-yl)-4-methylphenyl)-4-(2-fluoropropan-2-yl)picolinamide] |
| 0.577 | 0.153 | Cc1ccc(NC(=O)c2ccnc(C(C)(F)F)c2)cc1-c1cnc(N2CCNCC2)c(C#N)c1 [Example 161, N-(3-(5-cyano-6-(piperazin-1-yl)pyridin-3-yl)-4-methylphenyl)-2-(1,1-difluoroethyl) isonicotinamide] |
| 1.3 | 0.16 | COc1ncc(-c2cc(NC(=O)c3cccc(C(F)(F)F)c3)ccc2C)cc1C#N [Example 37, N-(3-(5-cyano-6-methoxypyridin-3-yl)-4-methylphenyl)-3-(trifluoromethyl) benzamide] |
| 0.297 | 0.115 | Cc1ccc(NC(=O)c2cccc(S(C)(=O)=O)c2)cc1-c1cnc(N(C)C)c(C#N)c1 [Example 260, N-(3-(5-cyano-6-(dimethylamino)pyridin-3-yl)-4-methylphenyl)-3-(methylsulfonyl) benzamide] |
| 4.17 | 0.777 | COCCNc1ncc(-c2cc(NC(=O)c3ccnc(C(C)(C)O)c3)ccc2C)cc1C#N [Example 209, N-(3-(5-cyano-6-((2-methoxyethyl)amino)pyridin-3-yl)-4-methylphenyl)-2-(2-hydroxypropan-2-yl)isonicotinamide] |
| 3.42 | 1.02 | Cc1ncc(NC(=O)c2ccnc(C(C)(C)C#N)c2)cc1-c1cnc(N2CCOC(C)(C)C2)c(C#N)c1 [Example 89, N-(5′-cyano-6′-(2,2-dimethylmorpholino)-2-methyl-[3,3′-bipyridin]-5-yl)-2-(2-cyanopropan-2-yl)isonicotinamide] |
| 1.57 | 0.233 | CCCNc1ncc(-c2cc(NC(=O)c3ccnc(C(F)(F)F)c3)ccc2C)cc1C#N [Example 40, N-(3-(5-cyano-6-(propylamino)pyridin-3-yl)-4-methylphenyl)-2-(trifluoromethyl) isonicotinamide] |
